# According to patent US20050244829A1, “Method of screening insulin resistance inproving drug” (priority 2002, published 2005):
# What was measured:
# [1] = test system: promoter region of p68 RNA helicase gene; test: Promoter activity of p68 RNA helicase gene, luciferase reporter assay in COS-1 cells; assay type: cell-based, monkey; conditions: COS-1 cells co-transfected with pGL3-p68-899 bp or pGL3-p68-1184 bp; pioglitazone final concentration 10 μM; 24 hours; corrected by β-galactosidase activity; FIG. 2
# Description: The culture medium was discarded and the cell was washed with phosphate buffered saline(PBS). Per each well, 80 μl each of lysis solution (100 mM potassium phosphate, pH 7.8, 0.2% Triton X-100) was added, for cell lysis. To 20 μl of the cytolytic solution, 100 μl of a luciferase substrate solution (Wako Pure Chemical Co., Ltd.) was added to assay the luminescence with a chemiluminescence meter (Type ML3000; Dynatech Laboratories). Separately, the β-galactosidase activity of the cytolytic solution was assayed with a kit for detecting the β-galactosidase activity (Galacto-Light Plus™ system; TROPIX), and the resulting value was digitized. This was used as the transfection efficiency of introduced gene, to correct the said luciferase activity per each well. Using primers represented by SEQ ID NOS:14 and 15 designed on the basis of the nucleotide sequence of the promoter of p68 RNA helicase gene as previously reported (Rossler, et al., Nucleic Acids Res., Vol. 28, pp. 932-939, 2000) and the human genome DNA sequence (GenBank accession No. AC009994) and additionally using the human genome DNA (Clontech) as template for PCR [using DNA polymerase (LA Taq DNA polymerase; Takara Shuzo Co., Ltd.), and at 98° C. (5 minutes) and subsequently 35 times of a cycle of 96° C. […] After culturing for 48 hours, the luminescence of luciferase was assayed in the same manner as in Example 2. […]
# p68 RNA helicase = test: Expression level of mRNA of p68 RNA helicase during differentiation of 3T3L1 cell into fat cell (real-time PCR); assay type: cell-based; conditions: 3T3L1 cell in differentiation culture medium; pioglitazone final concentration 1 μM; 24 hours after addition; corrected on G3PDH expression
# Description: To a culture plate (60-mm diameter; Asahi Technoglass), 2 ml of the minimum essential culture medium of DMEM (Gibco) supplemented with 10% fetal bovine serum (Sigma) was added and a culture cell 3T3L1 cell was cultured therein to become confluence. Subsequently, the culture medium was replaced with a differentiation culture medium [the minimum essential culture medium DMEM (Gibco) supplemented with insulin (at a final concentration of 10 μg/ml; Sigma), dexamethazone (at a final concentration of […]; Sigma) and 3-isobutyl-1-[…] (at a final concentration of […]; Sigma)], to which pioglitazone (at a final concentration of 1 μM) as an agent for improving insulin resistance was added or was not added. Then, it was examined as to whether or not the expression level of p68 RNA helicase changed between the culture medium with or without adding pioglitazone. 24 hours after pioglitazone addition, the cell was harvested, to extract RNA using an RNA extraction reagent (ISOGEN; Wako Pure Chemical Co., Ltd.) for reverse transcription with a reverse transcription reaction kit (Thermoscript RT-PCR System; Invitrogen). […]
compound,measurement,setting,value
"CCc1ccc(CCOc2ccc(CC3SC(=O)NC3=O)cc2)nc1 (single isomer, unassigned; (+)) [pioglitazone, (+)-5-[4-[2-(5-ethyl-2-pyridinyl)ethoxy]benzyl]-2,4-thiazolidinedione]",promoter activity of p68 RNA helicase gene (luciferase activity),[1],activated
same,expression level of p68 RNA helicase compared with the culture medium without pioglitazone addition,p68 RNA helicase,about 1.7 fold
